Source: paper PMC6315388, “Azasulfurylpeptide Modulation of CD36-Mediated Inflammation Without Effect on Neovascularization” (Biomedicines, 2018)
pIC50: −log10 of the molar value. Like-named read-outs stand apart in the source and are kept apart here. Marks after values point to notes of the source that are not given here. Starred links: 1 amine or outer side, 2 acyl side, 3 side chain; linkers in the order of their positions; H or OH if unused. Non-standard residues stand in square brackets, D forms with d. Residues, ends and D or L forms follow the SMILES beside them. aza(4-F)Phe = aza-4-fluorophenylalanine (alpha-carbon replaced by nitrogen, para-fluoro), O=C(N(Cc1ccc(F)cc1)N[*:1])[*:2]; X1 = O=C([C@@H](Cc1ccccc1)NS(=O)(=O)N(Cc1ccc(F)cc1)N[*:1])[*:2]; azaTyr = O=C(N(Cc1ccc(O)cc1)N[*:1])[*:2]

Assays:
[1] = target: T1, CD36 (Rattus norvegicus, UniProt Q07969); assay: Competition with [125I]-Tyr-Bpa-Ala-hexarelin tracer for CD36 binding on purified rat heart membranes; details: purified membranes from rat heart, read-out: CD36 binding affinity IC50
T1 construct: purified membranes from rat heart as a source of CD36; from tissue; host or cells: rat heart (purified membranes)
Description: The ability of [(4-F)AsF^4]-GHRP-6 (3c) to compete with the radiolabeled [^125I]-Tyr-Bpa-Ala-hexarelin used as tracer for CD36 binding was tested on purified membranes from rat heart as a source of CD36 [36].

[2] = test system: NO overproduction in J774 macrophage cell line elicited by TLR-2 agonist (R-FSL-1); assay: Modulation of TLR2 agonist (R-FSL-1)-induced overproduction of nitric oxide in J774 macrophage cell line (nitrite, DAN fluorescence); format: cell-based, murine; details: J774 macrophages; for NO inhibition Fold of 1: 2 h pre-incubation, overnight stimulation with 300 ng/mL R-FSL-1; for Inhibitory effect on R-FSL-elicited NO production (in words): R-FSL-1
Description: The murine J774A.1 macrophage cell lines were obtained from American Type Cell Collection (ATCC #TIB-67), seeded at 1.5 × 10^5 cells/well in Dulbecco’s modified eagle media (DMEM) containing 100U/mL of penicillin (Pen) and 100 μg/mL of streptomycin (Strep) on a 48-well plate (Costar® #3548), and incubated at 37 °C with 5% CO2. After 2 h, the medium of adhered cells was changed to DMEM-Pen/Strep containing 0.2% of bovine serum albumin (BSA), and supplemented with either azasulfurylpeptide 3a–f or [azaK^6]-GHRP-6 as a negative control. After 2 h of pre-incubation, the cells were stimulated overnight with 300 ng/mL of R-FSL-1. Supernatants were collected for fluorescence determination of nitrite using 2,3-diaminonaphtalene (DAN). Briefly, 25 μL of sample was incubated with 0.5 μg of DAN in a 100 μL final volume of phosphate buffer (50 mM, pH 7.5) at rt in the dark. After 15 min, the reaction was stopped with 20 µL of NaOH (2.8N) and the plate was read using a fluorescence plate reader (TECAN® Safire, λexc 365 nm and λem 430 nm).

[3] = test system: TNFα secretion in peritoneal macrophages; assay: TNFα secretion by peritoneal macrophages stimulated with R-FSL-1 (ELISA); format: cell-based, C57BL/6 mice; details: 1 µM peptide, 2 h pretreatment, R-FSL-1 300 ng/mL, NA: no activity
Description: (§1) Peritoneal macrophage cells from C57BL/6 mice were harvested from sterile DMEM cell-culture medium (Wisent # 319-005-CL), allowed to adhere for 1 h at 37 °C in a 5% CO2 atmosphere, and washed twice with PBS to remove non-adherent cells. Macrophages (0.5 × 10^6 cells/well) were plated in 48 well-culture plates with DMEM containing 0.2% of bovine serum albumin (BSA), pretreated for 2 h with azasulfurylpeptides 3b–e or [azaK^6]-GHRP-6 (1 µM), before stimulation with a TLR2 ligand: R-FSL-1 (Invivogen® #L7022) at 300 ng/mL interferon gamma (IFNγ R&D Systems® Minneapolis, MN, USA # 172-5201) at 20 ng/mL for 4 or 24 h. The supernatants were recovered, and ELISA (eBioscience® #88-7324; 88-7391) was performed to determine the levels of proinflammatory cytokine and chemokine (TNFα, MCP-1). The effect on NF-κB activation was documented on cell lysates after 0, 5, 10, 15 and 30 min stimulation with R-FSL1, using NF-κB p65/RelA specific ELISA-based assay (eBioscience® #85-86083). The results were expressed as mean ± SEM and analyzed statistically by a one-way analysis of variance (ANOVA) with a Dunnett as a post-test. Level of significance was set at P < 0.05.

[4] = test system: subretinal IBA-1 positive cells (activated microglia/macrophages); assay: Blue-light illumination model of retinal inflammation: IBA-1-positive cells in the subretinal space; format: in vivo; details: ApoE−/− mice, 1000 lux blue light 5 d, 289 nmol/kg s.c. for 7 consecutive days, vs illuminated vehicle-treated mice, n = 3–5
Description: Apo E deficient (ApoE^−/−) mice were obtained from The Jackson Laboratory (Bar Harbor, ME, USA). Animals were housed under 12 h light/dark cycles and fed ad libitum with a standard rodent diet. All experimental procedures were done in accordance with the Animal Ethics Committee at Université de Montreal (CDEA, project 12-012 approved on 26 January 2013) and the Canadian Council on Animal Care guidelines for use of experimental animals.
Three to four-month-old ApoE^−/− mice were exposed to blue LED-light (Yescom USA, Inc., City Of Industry, CA, USA) for 5 d at 1000 lux illumination without previous dark-adaptation. For pupil dilatation, ophthalmic atropine solution 1% (Alcon, Fort Worth, TX, USA) was applied to both eyes daily. Aza- and azasulfurylpeptides 1, 2 and 3c or [azaK^6]-GHRP-6 (289 nmol/kg) were administered subcutaneously at 24 h following blue-light exposure for 7 consecutive days. At the end of the blue-light exposure period, the mice were maintained on a 12:12 h light: dark cycle for 3 days, before being sacrificed. Enucleated eyes were fixed in 4% paraformaldehyde (PFA) for 15 min at rt and sectioned at the limbus; the anterior segments were discarded. The posterior eye cups consisting of retinal pigment epithelium (RPE)/choroid/sclera complex were collected and prepared for immunofluorescence analysis.
RPE/choroid/sclera flat-mounts were treated with PBS solution containing 0.1% Triton 100× and 10% fetal bovine serum (FBS) or 5% BSA (saturation buffer) for 45 min. Specimens were incubated overnight at 4 °C with primary antibodies diluted in saturation buffer. Immunofluorescence was performed using polyclonal rabbit anti-IBA-1 as marker of activated cells. […] Flatmounts were analyzed using an IX81 Olympus fluorescence microscope (Richmond Hill, ON, Canada). […]
IBA-1–stained cells were counted on flatmounts from control and illuminated mice injected daily with 0.9% NaCl or with aza- and azasulfurylpeptides 1, 2 and 3c or [azaK^6]-GHRP-6 (289 nmol/kg). Cell numbers were expressed as the mean number of IBA-1–positive cells in subretinal space. […]

[5] = target: T1, CD36; details: read-out: CD36 binding affinity IC50; cited from earlier work
[6] = test system: MCP-1 secretion in peritoneal macrophages; assay: MCP-1 secretion by peritoneal macrophages stimulated with R-FSL-1 (ELISA); format: cell-based, C57BL/6 mice; details: 1 µM peptide, 2 h pretreatment, R-FSL-1 300 ng/mL, NA: no activity
Description: as §1

[7] = test system: mouse choroidal explants (RPE/choroid/sclera complex); assay: Microvascular sprouting on choroid explant as index of angiogenesis; format: cell-based; details: 10^−6 M, 24 h, Matrigel-embedded mouse choroidal explants, n = 3–4
Description: Choroidal explants were set as described previously. Briefly, enucleated mice eyes with and without treatment with aza- and azasulfurylpeptides 1, 2 and 3c or [azaK^6]-GHRP-6 were collected and dissected to obtain the complex consisting of the RPE/choroid/sclera, which was cut in 16 explant fragments and cultured in 20 µL of Matrigel (BD biosciences, San Jose, CA, USA) in 24-wells plates (Sarstedt Inc., St. Leonard, QC, Canada). […] Phototographs of explants were taken under microscopy (T0 and T24 h). The explants were washed with endothelial basal medium (EBM) and incubated in EBM with NaCl or CD36 ligands at 10^−6 M for 24 h. The sprouting surface was assessed by image analysis using imagen J software. Ratios (sprouting surface at T24 h, sprouting surface at T0)/sprouting surface at T0 were determined. Numerical results were expressed as mean ± SEM. Data were compared using one-way ANOVA with Dunnett’s post-test. P < 0.05 was considered statistically significant (Prism software version 5.01; graphpad Software, San Diego, CA, USA).

T1 sequence (Q07969 whole entry): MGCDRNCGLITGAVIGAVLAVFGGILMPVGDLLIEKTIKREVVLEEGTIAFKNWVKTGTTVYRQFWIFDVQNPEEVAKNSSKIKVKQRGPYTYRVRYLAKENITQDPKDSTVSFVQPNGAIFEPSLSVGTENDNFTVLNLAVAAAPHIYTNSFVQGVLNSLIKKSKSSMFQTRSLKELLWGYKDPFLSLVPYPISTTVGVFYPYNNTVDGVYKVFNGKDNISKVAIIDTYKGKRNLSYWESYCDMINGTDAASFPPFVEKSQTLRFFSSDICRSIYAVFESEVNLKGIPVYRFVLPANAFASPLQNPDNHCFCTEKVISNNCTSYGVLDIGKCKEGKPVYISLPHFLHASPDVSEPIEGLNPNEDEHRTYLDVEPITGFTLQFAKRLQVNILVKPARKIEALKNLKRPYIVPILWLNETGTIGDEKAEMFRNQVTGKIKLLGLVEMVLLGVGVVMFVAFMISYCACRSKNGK

Compound | NO inhibition Fold of 1 [2] | Inhibitory effect on R-FSL-elicited NO production (in words) [2] | TNFα inhibition Fold of 1 [3] | Decrease of IBA-1+ cell accumulation in the subretina [4] | also measured
C[C@H](NC(=O)[C@@H](Cc1c[nH]c2ccccc12)NC(=O)[C@@H](N)Cc1c[nH]cn1)C(=O)NN(Cc1ccc(F)cc1)S(=O)(=O)N[C@H](Cc1ccccc1)C(=O)N[C@@H](CCCCN)C(N)=O [3c, H-His-D-Trp-Ala-(4-F)AsF-D-Phe-Lys-NH2] (H-H[dW]A[X1]K-NH2) |  |  |  |  | pIC50 [1]: 5.60
H-Ala-D-Trp-Ala-AsF(4-F)-D-Phe-Lys-NH2 [3f] | -0.04 Fold of 1 | limited inhibitory effect |  |  | 
H-His-D-Trp-Ala-(4-MeO)AsF-D-Phe-Lys-NH2 [3d] | 1.5 Fold of 1 |  | 1.5 Fold of 1 |  | 
H-His-D-Trp-Ala-AsF(4-HO)-D-Phe-Lys-NH2 [3b] | 0.2 Fold of 1 |  |  |  | 
H-His-D-Trp-Ala-AsF-D-Phe-Lys-NH2 [3a] | 1.6 Fold of 1 | reduced significantly NO production |  | 50% | 
H-His-D-Trp-Ala-AsNal-D-Phe-Lys-NH2 [3e] | 0.06 Fold of 1 | limited inhibitory effect |  |  | 
His-D-Trp-Ala-aza(4-F)Phe-D-Phe-Lys-NH2 (H-H[dW]A[aza(4-F)Phe][dF]K-NH2; SMILES C[C@H](NC(=O)[C@@H](Cc1c[nH]c2ccccc12)NC(=O)[C@@H](N)Cc1c[nH]cn1)C(=O)NN(Cc1ccc(F)cc1)C(=O)N[C@H](Cc1ccccc1)C(=O)N[C@@H](CCCCN)C(N)=O) [compound 2, semicarbazide analog of GHRP-6, CD36 ligand] |  |  |  |  | pIC50 [5]: 5.22
His-D-Trp-Ala-aza(4-F)Phe-D-Phe-Lys-NH2 [compound 2, semicarbazide analog of GHRP-6, CD36 ligand] | 1.4 Fold of 1 |  | 0.87 Fold of 1 | 50% | MCP-1 inhibition Fold of 1 [6]: 0.97 Fold of 1; Effect on choroidal microvascular sprouting (in words) [7]: inhibited microvascular sprouting
His-D-Trp-Ala-azaTyr-D-Phe-Lys-NH2 (H-H[dW]A[azaTyr][dF]K-NH2; SMILES C[C@H](NC(=O)[C@@H](Cc1c[nH]c2ccccc12)NC(=O)[C@@H](N)Cc1c[nH]cn1)C(=O)NN(Cc1ccc(O)cc1)C(=O)N[C@H](Cc1ccccc1)C(=O)N[C@@H](CCCCN)C(N)=O) [compound 1, semicarbazide analog of GHRP-6, CD36 ligand] |  |  |  |  | pIC50 [5]: 5.72
His-D-Trp-Ala-azaTyr-D-Phe-Lys-NH2 [compound 1, semicarbazide analog of GHRP-6, CD36 ligand] | 1 ^a Fold of 1 |  | 1 ^b Fold of 1 | 50% | MCP-1 inhibition Fold of 1 [6]: 1 ^c Fold of 1; Effect on choroidal microvascular sprouting (in words) [7]: inhibited microvascular sprouting
